Results published in patent US7205306B2, “Substituted pyrazinones, pyridines and pyrimidines as corticotropin releasing factor ligands” (Bristol-Myers Squibb Pharma Company, priority 2001, dated 2007).
“And” between values parts separate entries of the source, which are not always exact repeats. Equal entries are not always repeated. Structures can show the parent of a compound that is named as a salt.

`CCC(CC)n1cc(Cl)nc(N2CCc3cc(OC)cc(C)c32)c1=O` (as salt: hydrochloride) [Example 431, 5-Chloro-1-(1-ethylpropyl)-3-(5-methoxy-7-methyl-2,3-dihydro-1H-indol-1-yl)-2(1H)-pyrazinone] showed a melting point of 164 to 165 °C. In the case of `CCC(CC)n1cc(Cl)nc(N2CCc3cc(OC)cc(Br)c32)c1=O` (as salt: hydrochloride) [Example 441, 3-(7-Bromo-5-methoxy-2,3-dihydro-1H-indol-1-yl)-5-chloro-1-(1-ethylpropyl)-2(1H)-pyrazinone], the melting point is reported as 130 to 132 °C. `CCC(CC)n1cc(C)nc(N2CCc3cc(OC)cc(C)c32)c1=O` (as salt: hydrochloride) [Example 481, 3-(5-Methoxy-7-methyl-2,3-dihydro-1H-indol-1-yl)-1-(1-ethylpropyl)-5-methyl-2(1H)-pyrazinone] gave a melting point of 138 to 140 °C. Work on `CCC(C)n1cc(Cl)nc(N2CCc3cc(OC)cc(Cl)c32)c1=O` (stereo not shown) (as salt: hydrochloride) [Example 501, 5-Chloro-3-(7-chloro-5-methoxy-2,3-dihydro-1H-indol-1-yl)-1-(1-methylpropyl)-2(1H)-pyrazinone] yielded a melting point of 143 to 145 °C. With `CCC(C)n1cc(Cl)nc(N2CCc3cc(OC)cc(Br)c32)c1=O` (stereo not shown) (as salt: hydrochloride) [Example 502, 3-(7-Bromo-5-methoxy-2,3-dihydro-1H-indol-1-yl)-5-chloro-1-(1-methylpropyl)-2(1H)-pyrazinone] the melting point was 155 to 157 °C. In the case of `CCC(C)n1cc(Cl)nc(N2CCc3cc(OC)cc(C)c32)c1=O` (stereo not shown) (as salt: hydrochloride) [Example 503, 5-Chloro-3-(5-methoxy-7-methyl-2,3-dihydro-1H-indol-1-yl)-1-(1-methylpropyl)-2(1H)-pyrazinone], the melting point is reported as 176 to 178 °C. Work on `CCC(CC)n1cc(Br)nc(N2CCc3cc(OC)cc(Br)c32)c1=O` (as salt: hydrochloride) [Example 505, 5-Bromo-3-(7-bromo-5-methoxy-2,3-dihydro-1H-indol-1-yl)-1-(1-ethylpropyl)-2(1H)-pyrazinone] yielded a melting point of 133 to 135 °C. Work on `CCC(CC)n1cc(Br)nc(N2CCc3cc(OC)cc(C)c32)c1=O` (as salt: hydrochloride) [Example 506, 5-Bromo-1-(1-ethylpropyl)-3-(5-methoxy-7-methyl-2,3-dihydro-1H-indol-1-yl)-2(1H)-pyrazinone] yielded a melting point of 152 to 154 °C. `CC[C@H](C1CC1)n1cc(Cl)nc(N2CCc3cc(OC)cc(Cl)c32)c1=O` (as salt: hydrochloride) [Example 508, 5-Chloro-3-(7-chloro-5-methoxy-2,3-dihydro-1H-indol-1-yl)-1-[(1R)-1-cyclopropylpropyl]-2(1H)-pyrazinone] showed a melting point of 118 to 120 °C. Work on `CC[C@H](C1CC1)n1cc(Cl)nc(N2CCc3cc(OC)cc(Br)c32)c1=O` (as salt: hydrochloride) [Example 509, 3-(7-Bromo-5-methoxy-2,3-dihydro-1H-indol-1-yl)-5-chloro-1-[(1R)-1-cyclopropylpropyl]-2(1H)-pyrazinone] yielded a melting point of 138 to 140 °C. Work on `CC[C@H](C1CC1)n1cc(Cl)nc(N2CCc3cc(OC)cc(C)c32)c1=O` (as salt: hydrochloride) [Example 510, 5-Chloro-1-[(1R)-1-cyclopropylpropyl]-3-(5-methoxy-7-methyl-2,3-dihydro-1H-indol-1-yl)-2(1H)-pyrazinone] yielded a melting point of 160 to 162 °C. In the case of `CC[C@@H](C1CC1)n1cc(Cl)nc(N2CCc3cc(OC)cc(Cl)c32)c1=O` (as salt: hydrochloride) [Example 514, 5-Chloro-3-(7-chloro-5-methoxy-2,3-dihydro-1H-indol-1-yl)-1-[(1S)-1-cyclopropylpropyl]-2(1H)-pyrazinone], the melting point is reported as 128 to 130 °C. For `CC[C@@H](C1CC1)n1cc(Cl)nc(N2CCc3cc(OC)cc(Br)c32)c1=O` (as salt: hydrochloride) [Example 515, 3-(7-Bromo-5-methoxy-2,3-dihydro-1H-indol-1-yl)-5-chloro-1-[(1S)-1-cyclopropylpropyl]-2(1H)-pyrazinone], the melting point was 138 to 140 °C. `CC[C@@H](C1CC1)n1cc(Cl)nc(N2CCc3cc(OC)cc(C)c32)c1=O` (as salt: hydrochloride) [Example 516, 5-Chloro-1-[(1S)-1-cyclopropylpropyl]-3-(5-methoxy-7-methyl-2,3-dihydro-1H-indol-1-yl)-2(1H)-pyrazinone] gave a melting point of 156 to 158 °C. `CC[C@H](COC)n1cc(Cl)nc(N2CCc3cc(OC)cc(Br)c32)c1=O` (as salt: hydrochloride) [Example 523, 3-(7-Bromo-5-methoxy-2,3-dihydro-1H-indol-1-yl)-5-chloro-1-[(1R)-1-(methoxymethyl)propyl]-2(1H)-pyrazinone] gave a melting point of 102 to 104 °C. `CC[C@H](COC)n1cc(Br)nc(N2CCc3cc(OC)cc(Br)c32)c1=O` (as salt: hydrochloride) [Example 525, 5-Bromo-3-(7-bromo-5-methoxy-2,3-dihydro-1H-indol-1-yl)-1-[(1R)-1-(methoxymethyl)propyl]-2(1H)-pyrazinone] gave a melting point of 122 to 123 °C. `CC[C@H](COC)n1cc(Br)nc(N2CCc3cc(OC)cc(C)c32)c1=O` (as salt: hydrochloride) [Example 526, 5-Bromo-3-(5-methoxy-7-methyl-2,3-dihydro-1H-indol-1-yl)-1-[(1R)-1-(methoxymethyl)propyl]-2(1H)-pyrazinone] showed a melting point of 116 to 118 °C. Work on `CC[C@@H](COC)n1cc(Cl)nc(N2CCc3cc(OC)cc(Br)c32)c1=O` (as salt: hydrochloride) [Example 529, 3-(7-Bromo-5-methoxy-2,3-dihydro-1H-indol-1-yl)-5-chloro-1-[(1S)-1-(methoxymethyl)propyl]-2(1H)-pyrazinone] yielded a melting point of 100 to 102 °C. `COc1cc(C)c2c(c1)CCN2c1nc(Cl)cn(C(C(C)C)C(C)C)c1=O` (as salt: hydrochloride) [Example 532] gave a melting point of 94 to 96 °C. For `COc1cc(C)c2c(c1)CCN2c1nc(Cl)cn(CCSC)c1=O` (as salt: hydrochloride) [Example 534, 5-Chloro-3-(5-methoxy-7-methyl-2,3-dihydro-1H-indol-1-yl)-1-[2-(methylthio)ethyl]-2(1H)-pyrazinone], the melting point was 111 to 113 °C. Compound `CC[C@H](COC)n1cc(Cl)nc(N2CCc3cc(OC)cc(Cl)c32)c1=O` (as salt: hydrochloride) [Example 544, 5-Chloro-3-(7-chloro-5-methoxy-2,3-dihydro-1H-indol-1-yl)-1-[(1R)-1-(methoxymethyl)propyl]-2(1H)-pyrazinone] has a melting point of 126 to 128 °C. Compound `CC[C@H](COC)n1cc(Cl)nc(N2CCc3cc(OC)cc(C)c32)c1=O` (as salt: hydrochloride) [Example 545, 5-Chloro-3-(5-methoxy-7-methyl-2,3-dihydro-1H-indol-1-yl)-1-[(1R)-1-(methoxymethyl)propyl]-2(1H)-pyrazinone] has a melting point of 62 to 64 °C. `CC[C@@H](COC)n1cc(Br)nc(N2CCc3cc(OC)cc(C)c32)c1=O` (as salt: hydrochloride) [Example 549, 5-Bromo-3-(5-methoxy-7-methyl-2,3-dihydro-1H-indol-1-yl)-1-[(1S)-1-(methoxymethyl)propyl]-2(1H)-pyrazinone] showed a melting point of 115 to 117 °C. In the case of `CCC(CC)Nc1cc(N2CCc3cc(Cl)cc(Cl)c32)nc(C)n1` [Example 1, 4-(5,7-dichloro-2,3-dihydro-1H-indol-1-yl)-6-(1-ethylpropylamino)-2-methylpyrimidine], the melting point is reported as 116 to 117 °C. `CCC(CC)Nc1nc(C)nc(N2CCc3cc(Cl)cc(Cl)c32)c1Cl` [Example 2, 5-chloro-4-(5,7-dichloro-2,3-dihydro-1H-indol-1-yl)-6-(1-ethylpropylamino)-2-methylpyrimidine] gave a melting point of 132 to 134 °C. `CCC(CC)Nc1nc(C)nc(N2CCc3cc(Cl)cc(Cl)c32)c1Br` [Example 3, 5-bromo-4-(5,7-dichloro-2,3-dihydro-1H-indol-1-yl)-6-(1-ethylpropylamino)-2-methylpyrimidine] gave a melting point of 136 to 138 °C. In the case of `CCC(CC)Nc1nc(C)nc(N2CCc3cc(Cl)cc(Cl)c32)c1C=O` [Example 6, 4-(5,7-dichloro-2,3-dihydro-1H-indol-1-yl)-6-(1-ethylpropylamino)-5-formyl-2-methylpyrimidine], the melting point is reported as 182 to 184 °C. With `CCC(CC)Nc1nc(C)nc(N2CCc3cc(Cl)cc(Cl)c32)c1CO` [Example 7, 4-(5,7-dichloro-2,3-dihydro-1H-indol-1-yl)-6-(1-ethylpropylamino)-5-hydroxymethyl-2-methylpyrimidine] the melting point was 150 to 152 °C. In the case of `CCC(CC)Nc1nc(C)nc(N2CCc3cc(OC)cc(Cl)c32)c1C#N` [Example 59, 4-(7-chloro-5-methoxy-2,3-dihydro-1H-indol-1-yl)-5-cyano-6-(1-ethylpropylamino)-2-methylpyrimidine], the melting point is reported as 189 to 190 °C and 192 to 194 °C. Work on `CCC(CC)Nc1nc(C)nc(N2CCc3cc(OC)cc(Cl)c32)c1C=O` [Example 60, 4-(7-chloro-5-methoxy-2,3-dihydro-1H-indol-1-yl)-6-(1-ethylpropylamino)-5-formyl-2-methylpyrimidine] yielded a melting point of 178 to 179 °C. `CCC(COC)Nc1nc(C)nc(N2CCc3cc(OC)cc(Cl)c32)c1I` (stereo not shown) [Example 74, 4-(7-chloro-5-methoxy-2,3-dihydro-1H-indol-1-yl)-5-iodo-6-[1-(1-methoxymethyl)propylamino]-2-methylpyrimidine] gave a melting point of 150 to 152 °C. With `CCC(COC)Nc1nc(C)nc(N2CCc3cc(OC)cc(Cl)c32)c1C#N` (stereo not shown) [Example 75, 4-(7-chloro-5-methoxy-2,3-dihydro-1H-indol-1-yl)-5-cyano-6-[1-(1-methoxymethyl)propylamino]-2-methylpyrimidine] the melting point was 182 to 183 °C. Compound `CCC(COC)Nc1nc(C)nc(N2CCc3cc(OC)cc(Cl)c32)c1C=O` (stereo not shown) [Example 76, 4-(7-chloro-5-methoxy-2,3-dihydro-1H-indol-1-yl)-5-formyl-6-[1-(1-methoxymethyl)propylamino]-2-methylpyrimidine] has a melting point of 150 to 153 °C. Work on `CCC(C)Nc1cc(N2CCc3cc(OC)cc(Cl)c32)nc(C)n1` (stereo not shown) [Example 310, 4-(7-chloro-5-methoxy-2,3-dihydro-1H-indol-1-yl)-6-(1-methylpropylamino)-2-methylpyrimidine] yielded a melting point of 102 to 105 °C.
